# In publication PMC6791321, “CD23 is a glycan-binding receptor in some mammalian species” (The Journal of Biological Chemistry, 2019):
# Assays:
# Type in all cases: binding
# [1] = target: T1, mouse CD23 CRD (Mus musculus, UniProt P20693); assay: solid-phase competition with horseradish peroxidase reporter, immobilized biotin-tagged CRD; settings: pH 7.8, 2.5 mM CaCl2, 150 mM NaCl, 4 °C, competitive, KI approximates KD
# T1 construct: gene Fcer2
# T1 sequence (P20693 185-298 limits assumed): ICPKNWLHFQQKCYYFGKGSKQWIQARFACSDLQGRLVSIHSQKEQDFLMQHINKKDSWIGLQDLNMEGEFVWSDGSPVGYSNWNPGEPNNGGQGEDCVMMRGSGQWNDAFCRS
# [2] = target: T2, cow CD23 CRD (Bos taurus, UniProt E1BIQ4); assay: as above; settings: pH 7.8, 2.5 mM CaCl2, 150 mM NaCl, 4 °C, competitive, KI approximates KD
# T2 construct: gene FCER2; untagged for crystals; C-terminal biotinylation tag LNDIFEAQKIEWHE for solid-phase assays
# T2 sequence (E1BIQ4 169-302): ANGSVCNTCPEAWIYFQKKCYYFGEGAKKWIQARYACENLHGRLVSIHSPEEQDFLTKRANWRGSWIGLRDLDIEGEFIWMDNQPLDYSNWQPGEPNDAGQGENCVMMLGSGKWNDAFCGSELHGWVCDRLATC
# Description: solid-phase competition with horseradish peroxidase reporter, immobilized biotin-tagged CRD on cow CD23 CRD | The three monosaccharides with highest affinity are mannose, fucose, and GlcNAc
# [3] = target: T2, cow CD23 CRD; assay: as above; settings: pH 7.8, 2.5 mM CaCl2, 150 mM NaCl, 4 °C; competitive
# [4] = target: T2, cow CD23 CRD; assay: solid-phase competition with horseradish peroxidase reporter, immobilized biotin-tagged CRD; also crystal structure at […] Å (untagged CRD)
# [5] = may have been tested as methyl glycoside
Ki [1] [mM],Ki [2] [mM],Compound,also measured
5.2,1.1,CC(=O)N[C@H]1C(O)O[C@H](CO)[C@@H](O)[C@@H]1O (some centres unmarked) [GlcNAc],
,,CC(=O)N[C@H]1[C@H](O[C@H]2[C@H](O)[C@@H](NC(C)=O)C(O)O[C@@H]2CO)O[C@H](CO)[C@@H](O[C@@H]2O[C@H](CO[C@H]3O[C@H](CO[C@H]4O[C@H](CO)[C@@H](O)[C@H](O)[C@@H]4O[C@H]4O[C@H](CO)[C@@H](O)[C@H](O)[C@@H]4O)[C@@H](O)[C@H](O[C@H]4O[C@H](CO)[C@@H](O)[C@H](O)[C@@H]4O[C@H]4O[C@H](CO)[C@@H](O)[C@H](O)[C@@H]4O)[C@@H]3O)[C@@H](O)[C@H](O[C@H]3O[C@H](CO)[C@@H](O)[C@H](O)[C@@H]3O[C@H]3O[C@H](CO)[C@@H](O)[C@H](O)[C@@H]3O[C@H]3O[C@H](CO)[C@@H](O)[C@H](O)[C@@H]3O)[C@@H]2O)[C@@H]1O (some centres unmarked) [Man9GlcNAc2],ratio of affinities relative to α-methyl mannoside [3]: 240 ± 50 fold
,,C[C@@H]1OC(O)[C@@H](O)[C@H](O)[C@@H]1O (some centres unmarked) [fucose],"Ki [1, 5]: 8.4 mM; Ki [2, 5]: 1.8 mM"
5.7,1.6,OC[C@H]1OC(O)[C@@H](O)[C@@H](O)[C@@H]1O (some centres unmarked) [mannose],
,,CO[C@H]1O[C@H](CO)[C@@H](O)[C@H](O)[C@@H]1O [α-methyl mannoside],Ki [4]: 1.6 mM
